From patent US20230226027A1, “THIENOPYRIDINE DERIVATIVES FOR USE IN THE TREATMENT OF CORONAVIRUS INFECTION” (INSERM (INSTITUT NATIONAL DE LA SANTÉ ET DE LA RECHERCHE …, priority 2020, published 2023) come the findings set out here.

Series [1] deals with SARS-CoV-2. The series is classed as cell-based. The settings on record: VeroE6 cells, 1 h pretreatment, MOI 0.001, viral RNA in supernatant 24 hours post-infection (FIG. 1).
The subject of series [2] is SARS-CoV-2. The series is classed as cell-based. The settings on record: Calu-3 cells, 2 h pre-treatment, MOI 0.001, 24 hours post-infection (FIGS. 2A-2B).
The subject of series [3] is SARS-CoV-2. The series is classed as cell-based. The note with it: Calu-3 cells, concentration ≥ 10 µM, even when given 4 h post-infection, TCID50 24 hours post-infection (FIG. 4).
The test system of a further series is Calu-3 cells. Kind of series: Cellular viability assay (MTT) in Calu-3 cells. In kind it is cell-based, human. The note with it: 24 hours of treatment, MTT (FIG. 3). The protocol:
FIG. 3. Analysis of cellular viability in human lung epithelial Calu-3 cells treated with AM-001. Calu-3 cells treated for 24 hours with the indicated concentrations of AM-001. Cellular viability was measured with the Cell Proliferation Kit I (MTT) (Roche Applied Science, Indianapolis, IN) according to the manufacturer’s protocol.
Calu-3 cells were plated 48 hours before treatment in 96-wells plates at a density of 1.10^5 cells per well. After 24 hours of treatment with the different concentrations of AM-001, cells viability was measured using the Cell Proliferation Kit I (MTT) (Roche Applied Science, Indianapolis, IN) according to the manufacturer’s protocol.

SMILES strings stand for the structures. Read-outs that look alike come from different tables or passages of the source.

On to `Nc1c(C(=O)Nc2ccc(F)cc2)sc2nc(-c3cccs3)cc(-c3ccccc3)c12` [AM-001], for which the results for the “replication of SARS-CoV-2” value with SARS-CoV-2 [1] and with SARS-CoV-2 [1] (listed as AM001) were “Inhibition of SARS-CoV-2 replication” and “significantly decreases the replication”, respectively. The “SARS CoV-2 replication (viral RNA and infectious particles in supernatant)” value in the series with SARS-CoV-2 [2] is “inhibit SARS CoV-2 replication”. Besides, in the series with SARS-CoV-2 [3], the infectious virus production result was “totally blocks infectious virus production”. Also, in the series with Calu-3 cells, the cellular toxicity entry is on record as “no detected cellular toxicity”.
